# Laboratory results as given in patent US6277872A, “Oxadiazoles, processes for their preparation and their use as medicaments” (Boehringer Ingelheim KG, priority 1996, dated 2001).
# Key:
# AMPA receptor = experiment: Inhibition of the cainate-induced signal at the AMPA receptor, electrophysiology on neuronal cells (Patch-Clamp-Method); format: cell-based; details: test concentration of 100 μM
# Procedure: The tests were carried out at a test concentration of 100 μM.
# [1] = tested on: "Na+ channel site 2"-binding site; experiment: Binding to the Na+ channel site 2 binding site ([3H]-BTX); details: test concentration typically 10 μM
# Procedure: (§1) The tests were typically carried out at a test concentration of 10 μM.
# Histamine H1 receptor = target: T1, Histamine H1 receptor (Cavia porcellus, UniProt P31389); experiment: Histamine H1 receptor binding study; details: test concentration typically 10 μM; read-out: H1 Inh. [%]
# T1 construct: from tissue
# Excerpt: Table 5 summarises the inhibitory values on the above receptors:
# Sigma receptor = Sigma receptor binding study; details: test concentration typically 10 μM
# Procedure: as §1
# T1 sequence (P31389 whole entry): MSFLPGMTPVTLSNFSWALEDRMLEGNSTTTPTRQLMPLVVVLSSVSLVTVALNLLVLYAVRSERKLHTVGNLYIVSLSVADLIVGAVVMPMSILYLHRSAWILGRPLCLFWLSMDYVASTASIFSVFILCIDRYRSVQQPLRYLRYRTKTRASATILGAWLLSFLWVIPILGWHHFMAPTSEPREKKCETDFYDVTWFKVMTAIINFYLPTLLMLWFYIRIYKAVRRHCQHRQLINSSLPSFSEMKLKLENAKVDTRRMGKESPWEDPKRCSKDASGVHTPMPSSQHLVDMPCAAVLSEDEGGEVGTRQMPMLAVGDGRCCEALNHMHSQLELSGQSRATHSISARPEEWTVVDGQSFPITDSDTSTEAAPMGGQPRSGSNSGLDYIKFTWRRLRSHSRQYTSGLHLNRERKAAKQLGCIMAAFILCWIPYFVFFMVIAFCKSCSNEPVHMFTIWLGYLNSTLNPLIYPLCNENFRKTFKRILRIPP
SMILES,AMPA Inh. [%] (inhibiting the cainate-induced signal at the AMPA receptor) (AMPA receptor),Na+-channel Inh. [%] ([3H]-BTX) [1],inhibition at 10 µM (Histamine H1 receptor) [%],Sigma Inh. [%] (Sigma receptor)
"CN(C)CCOc1ccccc1-c1noc(-c2ccccc2)n1 [Example 3, 3-{2-[2-(N,N-Dimethylamino)ethyl]oxy-phenyl}-5-phenyl-1,2,4-oxadiazole]",96,91,98,62
"c1ccc(-c2noc(-c3ccccc3OCCN3CCOCC3)n2)cc1 [Example 4, 5-{2-[2-(Morpholino)ethyl]oxy-phenyl}-3-phenyl-1,2,4-oxadiazole]",71,79,44,41
"CN1CCN(CCOc2ccccc2-c2nc(-c3ccccc3)no2)CC1 [Example 5, 5-{2-[2-(4-methylpiperazin-1-yl)ethyl]oxy-phenyl}-3-phenyl-1,2,4-oxadiazole]",84,78,74,90
"CN(C)CCOc1ccccc1-c1nc(-c2ccc(O)cc2)no1 [Example 8, 5-{2-[2-(N,N-Dimethylamino)ethyl]oxy-phenyl}-3-(4-hydroxyphenyl)-1,2,4-oxadiazole]",97,87,94,59
"CCN(CC)CCOc1ccccc1-c1nc(-c2ccccc2)no1 [Example 12, 5-{2-[2-(N,N-Diethylamino)ethyl]-oxy-phenyl}-3-phenyl-1,2,4-oxadiazole]",85,90,87,68
"c1ccc(-c2noc(-c3ccccc3OCCN3CCCC3)n2)cc1 [Example 13, 5-{2-[2-(N-Pyrrolidinyl)ethyl]oxy-phenyl}-3-phenyl-1,2,4-oxadiazole]",96,95,91,83
"c1ccc(-c2noc(-c3ccccc3OCCN3CCCCC3)n2)cc1 [Example 14, 5-{2-[2-(N-Piperidinyl)ethyl]oxy-phenyl}-3-phenyl-1,2,4-oxadiazole]",96,100,87,93
"Cc1ccc(-c2noc(-c3ccccc3OCCN(C)C)n2)cc1 [Example 17, 5-{2-[2-(N,N-Dimethylamino)-ethyl]oxy-phenyl}-3-(4-methyl-phenyl)-1,2,4-oxadiazole]",97,80,78,65
"CN(C)CCOc1ccccc1-c1nc(-c2ccc(Cl)cc2)no1 [Example 18, 5-{2-[2-(N,N-Dimethylamino)-ethyl]oxy-phenyl}-3-(4-chlor-phenyl)-1,2,4-oxadiazole]",80,85,94,80
"COc1ccc(-c2noc(-c3ccccc3OCCN(C)C)n2)cc1 [Example 19, 5-{2-[2-(N,N-Dimethylamino)-ethyl]oxy-phenyl}-3-(4-methoxy-phenyl)-1,2,4-oxadiazole]",86,83,95,74
"c1ccc(CNCCOc2ccccc2-c2nc(-c3ccccc3)no2)cc1 [Example 20, 5-{2-[2-(N-benzylamino)ethyl]-oxy-phenyl}-3-phenyl-1,2,4-oxadiazole]",90,100,19,84
"CC(C)NCCOc1ccccc1-c1nc(-c2ccccc2)no1 [Example 21, 5-{2-[2-(N-Isopropylamino)ethyl]-oxy-phenyl}-3-phenyl-1,2,4-oxadiazole]",98,100,75,76
"CNCCOc1ccccc1-c1nc(-c2ccccc2)no1 [Example 22, 5-{2-[2-(N-methylamino)ethyl]-oxy-phenyl}-3-phenyl-1,2,4-oxadiazole]",94,94,64,78
"CCNCCOc1ccccc1-c1nc(-c2ccccc2)no1 [Example 23, 5-{2-[2-(N-ethylamino)ethyl]-oxy-phenyl}-3-phenyl-1,2,4-oxadiazole]",93,99,63,79
"NCCOc1ccccc1-c1nc(-c2ccccc2)no1 [Example 24, 5-[2-(2-aminoethyl)oxy-phenyl]-3-phenyl-1,2,4-oxadiazole]",96,89,27,52
"CN(C)CCOc1ccccc1-c1nc(-c2ccccc2Cl)no1 [Example 27, 5-{2-[2-(N,N-Dimethylamino)-ethyl]oxy-phenyl}-3-(2-chloro-phenyl)-1,2,4-oxadiazole]",91,79,90,84
"CN(C)CCOc1ccccc1-c1nc(-c2ccc(Cl)cc2Cl)no1 [Example 28, 5-{2-[2-(N,N-Dimethylamino)-ethyl]oxy-phenyl}-3-(2,4-dichloro-phenyl)-1,2,4-oxadiazole]",87,91,92,84
"CN(C)CCOc1ccccc1-c1nc(Cc2ccccc2)no1 [Example 31, 5-{2-[2-(N,N-Dimethylamino)-ethyl]oxy-phenyl}-3-benzyl-1,2,4-oxadiazole]",23,82,94,77
Cc1ccccc1-c1noc(-c2ccccc2OCCN(C)C)n1 [Example 33],87,84,87,77
CN(C)CCOc1ccccc1-c1nc(-c2ccccc2F)no1 [Example 34],97,88,96,75
"Cc1cccc(-c2noc(-c3ccccc3OCCN(C)C)n2)c1 [Example 37, 5-{2-[2-(N,N-Dimethylamino)-ethyl]oxy-phenyl}-3-(3-methyl-phenyl)-1,2,4-oxadiazole]",93,93,93,82
"CN1CCN(c2ccccc2-c2nc(-c3ccccc3)no2)CC1 [Example 40, 5-[2-(4-methylpiperazin-1yl)-phenyl]-3-phenyl-1,2,4-oxadiazole]",37,88,99,76
"CN(C)CCOc1ccccc1-c1nc(-c2cccs2)no1 [Example 42, 5-{2-[2-(N,N-Dimethylamino)-ethyl]oxy-phenyl}-3-(2-thienyl)-1,2,4-oxadiazole]",79,89,94,57
"CN(C)CCOc1ccccc1-c1nc(-c2ccccn2)no1 [Example 43, 5-{2-[2-(N,N-Dimethylamino)-ethyl]oxy-phenyl}-3-(2-pyridyl)-1,2,4-oxadiazole]",77,72,86,0
"CN(C)CCOc1ccccc1-c1nc(-c2cccc(C(F)(F)F)c2)no1 [Example 44, 5-{2-[2-(N,N-Dimethylamino)-ethyl]oxy-phenyl}-3-(3-rifluoromethylphenyl)-1,2,4-oxadiazole]",62,89,74,93
"CN(C)CCOc1ccccc1-c1nc(-c2ccc(F)cc2)no1 [Example 45, 5-{2-[2-(N,N-Dimethylamino)-ethyl]oxy-phenyl}-3-(4-fluoro-phenyl)-1,2,4-oxadiazole]",64,79,98,85
"CN(C)CCOc1ccccc1-c1nc(-c2ccc(N)cc2)no1 [Example 47, 5-{2-[2-(N,N-Dimethylamino)-ethyl]oxy-phenyl}-3-(4-amino-phenyl)-1,2,4-oxadiazole]",59,74,82,56
"CN(C)CCOc1ccccc1-c1nc(-c2ccsc2)no1 [Example 54, 5-{2-[2-(N,N-Dimethylamino)-ethyl]oxy-phenyl}-3-(3-thienyl)-1,2,4-oxadiazole]",–,62,95,68
"CN(C)CCOc1ccccc1-c1nc(C2CC2)no1 [Example 55, 5-{2-[2-(N,N-Dimethylamino)-ethyl]oxy-phenyl}-3-cyclopropyl-1,2,4-oxadiazole]",81,–,–,–
